Measured values from ChEMBL document CHEMBL1201862, “PubChem BioAssay data set” (2004).
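Test compounds were applied to cells in 96-well plates for 48 hours at 5 doses. GI50 is the concentration that inhibits growth by half.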 Activity calls are given as the source filed them. Rule as the data show it: active = GI50 up to about 1.1 µM and inactive = higher.

How the values were obtained:
Experiment in all cases: inhibition of tumour cell growth, NCI panel, 48 h
NCI-H460 = tested on: NCI-H460
SK-OV-3 = tested on: SK-OV-3
SNB-75 = tested on: SNB-75
NCI-H226 = tested on: NCI-H226
A549 = tested on: A549
HCT-116 = tested on: HCT-116
TK-10 = tested on: TK-10
MDA-MB-435 = tested on: MDA-MB-435
OVCAR-4 = tested on: OVCAR-4
KM12 = tested on: KM12
NCI-H522 = tested on: NCI-H522
LOX IMVI = tested on: LOX IMVI
A498 = tested on: A498
SW-620 = tested on: SW-620
IGROV-1 = tested on: IGROV-1
NCI/ADR-RES = tested on: NCI/ADR-RES
BT-549 = tested on: BT-549
SK-MEL-5 = tested on: SK-MEL-5
CAKI-1 = tested on: CAKI-1

Measured: GI50

Fc1ccc(C(OCCN2CCC3CCC(C2)N3CCCc2ccccc2)c2ccc(F)cc2)cc1 (stereo unspecified)
inactive: NCI-H460 2.58 µM | SK-OV-3 10.4 µM | SNB-75 2.4 µM | NCI-H226 3.94 µM | A549 6.15 µM | HCT-116 2.65 µM | TK-10 4.43 µM | MDA-MB-435 2.61 µM | OVCAR-4 5.28 µM | KM12 3.11 µM | NCI-H522 3.35 µM | LOX IMVI 3.83 µM | A498 3.02 µM | SW-620 3.64 µM | IGROV-1 4.97 µM | NCI/ADR-RES 3.62 µM | BT-549 8.89 µM | SK-MEL-5 1.76 µM | CAKI-1 4.86 µM

Cc1nn(-c2cc(Cl)ccc2[N+](=O)[O-])c(C)c1Cl
inactive: NCI-H460 70.5 µM | SK-OV-3 > 100 µM | SNB-75 86.5 µM | NCI-H226 65.8 µM | A549 71.1 µM | HCT-116 53.8 µM | TK-10 > 100 µM | MDA-MB-435 > 100 µM | OVCAR-4 > 100 µM | KM12 > 100 µM | NCI-H522 > 100 µM | LOX IMVI > 100 µM | A498 > 100 µM | SW-620 > 100 µM | IGROV-1 > 100 µM | NCI/ADR-RES 55.8 µM | BT-549 42.5 µM | SK-MEL-5 81.7 µM | CAKI-1 83.4 µM

O=C(NNC(=S)NC1CCCCC1)C12CC3CC(CC(C3)C1)C2
inactive: NCI-H460 > 100 µM | SK-OV-3 > 100 µM | SNB-75 52.2 µM | NCI-H226 > 100 µM | A549 > 100 µM | HCT-116 > 100 µM | TK-10 > 100 µM | MDA-MB-435 > 100 µM | OVCAR-4 > 100 µM | KM12 > 100 µM | NCI-H522 > 100 µM | LOX IMVI > 100 µM | A498 > 100 µM | SW-620 > 100 µM | IGROV-1 > 100 µM | NCI/ADR-RES > 100 µM | BT-549 > 100 µM | SK-MEL-5 > 100 µM | CAKI-1 > 100 µM

Cc1ccccc1OC(C)C(=O)NN1C(=O)CC(=O)N(c2ccc(Cl)cc2)C1=S (stereo unspecified)
inactive: NCI-H460 31 µM | SK-OV-3 48.2 µM | SNB-75 35 µM | NCI-H226 31.5 µM | A549 43.9 µM | HCT-116 22.2 µM | TK-10 44 µM | MDA-MB-435 49.3 µM | OVCAR-4 38.5 µM | KM12 36.3 µM | NCI-H522 32.3 µM | LOX IMVI 29 µM | A498 20.7 µM | SW-620 36.2 µM | IGROV-1 49.9 µM | NCI/ADR-RES 29.4 µM | BT-549 37.2 µM | SK-MEL-5 25.1 µM | CAKI-1 37.8 µM
